What was measured:
Assay in all cases: relative viability (nuclei count vs DMSO), 5 days (fraction); higher = more cells survive
[1] = compound: O=S(=O)(c1ccccc1)N(CC(F)(F)F)c1ccc(C(O)(C(F)(F)F)C(F)(F)F)cc1 + CS(=O)(=O)CCNCc1ccc(-c2ccc3ncnc(Nc4ccc(OCc5cccc(F)c5)c(Cl)c4)c3c2)o1 [Lapatinib] (partner 2 µM)
Method in brief: (§1)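 For relative viability, nuclei counts in treated wells were divided by those in vehicle wells. Lung cancer cell lines had been pin-tool dosed in 1536-well plates the day after seeding and cultured for 5 days, then fixed and stained in one step (final 0.05% Triton X-100, 1% formaldehyde, 1 ug/ml Hoechst) and imaged at 4×. Doses were one drug alone or a fixed anchor-drug dose plus five library-drug doses (not always all listed) in √10 steps, and values are duplicate-plate medians.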

[2] = compound: C1=CC2=C(C=CC(=C2)C=C3C(=O)NC(=NCC4=CC=CS4)S3)N=C1 [RO-3306] + C[C@]1(O)C[C@@H](c2nc(-c3ccc4ccc(-c5ccccc5)nc4c3)c3c(N)nccn32)C1 [Linsitinib] (partner 1 µM)
Method in brief: as §1

[3] = compound: C1=CC2=C(C=CC(=C2)C=C3C(=O)NC(=NCC4=CC=CS4)S3)N=C1 [RO-3306] + Cc1nc(Nc2ncc(C(=O)Nc3c(C)cccc3Cl)s2)cc(N2CCN(CCO)CC2)n1 [Dasatinib] (partner 0.075 µM)
Method in brief: as §1

[4] = compound: O=S(=O)(c1ccccc1)N(CC(F)(F)F)c1ccc(C(O)(C(F)(F)F)C(F)(F)F)cc1 + NC(=O)Nc1cc(-c2cccc(F)c2)sc1C(=O)N[C@H]1CCCNC1 [AZD7762] (partner 0.2 µM)
Method in brief: as §1

Row | Cell Line | relative viability ([1]; first compound 0.8 µM) | relative viability ([1]; first compound 2.53 µM) | relative viability ([1]; first compound 8 µM) | relative viability ([2]; first compound 0.01 µM) | relative viability ([2]; first compound 0.03162 µM) | relative viability ([2]; first compound 0.1 µM) | relative viability ([2]; first compound 0.3162 µM) | relative viability ([2]; first compound 1 µM) | relative viability ([3]; first compound 0.01 µM) | relative viability ([3]; first compound 0.03162 µM) | relative viability ([3]; first compound 0.1 µM) | relative viability ([3]; first compound 0.3162 µM) | relative viability ([3]; first compound 1 µM) | relative viability ([4]; first compound 0.8 µM) | relative viability ([4]; first compound 2.53 µM) | relative viability ([4]; first compound 8 µM)
1 | SK-MES-1 | 0.442 | 0.424 | 0.514 | 1.14 | 0.859 | 1.16 | 1.16 | 1.15 | 0.341 | 0.44 | 0.344 | 0.379 | 0.348 |  |  | 
2 | H3255 | 0.249 | 0.231 | 0.223 | 1.17 | 0.814 | 1.01 | 0.918 | 0.945 | 0.358 | 0.381 | 0.353 | 0.327 | 0.329 | 0.787 | 0.666 | 0.76
3 | NCI-H2087 | 0.922 | 0.988 | 0.994 | 0.977 | 0.982 | 1.06 | 1.05 | 0.928 | 1.01 | 0.541 | 0.914 | 0.869 | 1.04 | 1.4 | 1.31 | 1.31
4 | NCI-H1666 | 0.725 | 0.625 | 0.408 | 0.829 | 0.693 | 0.684 | 0.823 | 0.834 | 0.794 | 0.724 | 0.772 | 0.795 | 0.698 | 0.806 | 0.76 | 0.716
5 | SK-LU-1 | 0.903 | 1.02 | 0.753 | 1.25 | 1.08 | 1.02 | 1.19 | 0.957 | 0.14 | 0.177 | 0.18 | 0.198 | 0.151 |  |  | 
6 | NCI-H727 | 0.844 | 0.646 | 0.738 | 0.464 | 0.221 | 0.28 | 0.277 | 0.35 | 0.346 |  | 0.413 | 0.402 | 0.523 | 0.549 | 0.604 | 0.526
7 | NCI-H1755 | 1.15 | 0.797 | 1 | 1.05 | 1 | 1.02 | 0.995 | 1.09 | 0.46 | 0.417 | 0.441 | 0.366 | 0.411 | 0.468 | 0.421 | 0.485
8 | NCI-H1650 | 0.871 | 0.735 | 0.723 |  |  |  |  |  | 0.326 | 0.284 | 0.311 | 0.33 | 0.291 |  |  | 
9 | HARA | 0.642 | 0.575 | 0.552 | 0.861 | 0.789 | 0.902 | 1.02 | 1.35 | 0.362 | 0.256 | 0.356 | 0.306 | 0.257 | 0.437 |  | 0.318
10 | NCI-H1944 | 0.897 | 0.856 | 0.951 | 1.22 | 1.07 | 1.08 | 1.36 | 1.17 | 0.209 | 0.212 | 0.206 | 0.223 | 0.217 | 0.546 | 0.501 | 0.581
11 | RERF-LC-KJ | 0.828 | 0.715 | 0.693 | 0.956 | 0.831 | 0.902 | 0.974 | 1 | 0.919 | 0.667 | 0.907 | 0.881 | 0.915 | 0.973 | 0.889 | 0.825
12 | NCI-H647 | 1.52 | 1.17 | 1.2 | 1.43 | 1.07 | 1.21 | 1.29 | 1.07 | 0.155 | 0.117 | 0.18 | 0.226 | 0.129 | 0.483 | 0.388 | 0.535
13 | NCI-H838 | 1.23 | 0.947 | 1.06 | 1.11 | 0.742 | 1.05 | 1.15 | 0.92 | 0.351 | 0.254 | 0.244 | 0.295 | 0.273 | 0.998 | 0.894 | 0.871
14 | NCI-H2170 | 0.276 | 0.299 | 0.288 |  |  |  |  |  | 0.492 | 0.585 | 0.57 | 0.621 | 0.456 | 0.994 | 0.817 | 0.961
15 | COR-L 105 | 0.377 | 0.386 | 0.371 | 1.08 | 0.912 | 0.923 | 1.08 | 0.861 | 0.3 | 0.302 | 0.271 | 0.344 | 0.335 |  |  | 
16 | HOP-62 | 1.18 | 0.812 | 0.798 | 0.951 | 0.985 | 0.892 | 0.978 | 0.973 | 0.709 | 0.516 | 0.633 | 0.757 | 0.504 | 0.649 | 0.517 | 0.598
17 | A-427 | 1.04 | 0.919 | 1.1 | 1.14 | 1.1 | 1.07 | 1.06 | 1.21 | 0.739 | 0.565 | 0.644 | 0.631 | 0.551 | 0.879 | 0.734 | 0.695
18 | PC-14 | 0.26 | 0.191 | 0.223 | 0.989 | 0.773 | 0.969 | 1.02 | 0.991 | 0.239 | 0.359 | 0.232 | 0.243 | 0.212 | 0.216 | 0.228 | 0.216
19 | NCI-H1648 |  |  |  |  |  |  |  |  |  |  |  |  |  | 0.694 | 0.505 | 0.707
20 | NCI-H1437 | 0.861 | 0.651 | 0.622 | 1.15 | 0.673 | 0.945 | 1.03 | 1.1 | 0.428 | 0.288 | 0.283 | 0.405 | 0.461 | 1.08 | 0.995 | 0.849
21 | 201T | 1.01 | 0.949 | 1.03 | 1.11 | 1.01 | 1.08 | 1.09 | 0.999 | 0.584 | 0.588 | 0.571 | 0.529 | 0.517 | 0.797 | 0.617 | 0.637
22 | EBC-1 | 0.307 | 0.353 | 0.337 | 1.03 | 0.556 | 0.977 | 1.15 | 1.05 |  |  |  |  |  |  |  | 

Source: the supplement of paper PMC10307832
